Measurements as given in patent US20250115598A1 (Anaxis Pharma Pty Ltd, priority 2021, published 2025).

Assays:
[1] = biological target: human MLKL (full length) (Homo sapiens (Human), UniProt Q8NB16); assay: KINOMEscan binding assay, human MLKL (full length); conditions: KINOMEscan, Table 21; read-out: Human MLKL (full-length) (KD)
Summary of the method: (§1)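 Active-site competition binding: DNA-tagged kinase (T7 phage fusion from BL21-derived E. coli lysate, or HEK-293-expressed) captured on immobilized-ligand beads, with bound kinase in the eluate quantified by qPCR. Compounds ran as 11-point 3-fold dilutions, 1% DMSO, top 30,000 nM for most. Kd came from a Hill fit (slope −1).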

[2] = biological target: human RIPK1 (Homo sapiens (Human), UniProt Q13546); assay: KINOMEscan binding assay, human RIPK1; conditions: Table 21
Summary of the method: as §1

[3] = biological target: human RIPK3 (Homo sapiens (Human), UniProt Q9Y572); assay: KINOMEscan binding assay, human RIPK3; conditions: Table 21
Summary of the method: as §1

Chain of human RIPK3 (Q9Y572 whole entry): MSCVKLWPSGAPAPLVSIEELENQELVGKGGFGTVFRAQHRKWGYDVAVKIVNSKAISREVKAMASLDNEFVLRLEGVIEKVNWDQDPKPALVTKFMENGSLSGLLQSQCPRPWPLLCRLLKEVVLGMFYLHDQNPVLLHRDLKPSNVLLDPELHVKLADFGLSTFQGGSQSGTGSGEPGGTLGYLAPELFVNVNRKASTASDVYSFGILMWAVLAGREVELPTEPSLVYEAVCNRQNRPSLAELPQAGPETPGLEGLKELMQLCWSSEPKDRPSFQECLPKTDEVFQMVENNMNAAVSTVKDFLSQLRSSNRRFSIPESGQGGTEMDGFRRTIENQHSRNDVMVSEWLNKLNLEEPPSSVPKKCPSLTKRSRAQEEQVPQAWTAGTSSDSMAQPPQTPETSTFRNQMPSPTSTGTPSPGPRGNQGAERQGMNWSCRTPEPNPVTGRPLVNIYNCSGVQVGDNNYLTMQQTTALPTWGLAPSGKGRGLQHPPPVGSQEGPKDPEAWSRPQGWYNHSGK
Chain of human RIPK1 (Q13546 whole entry): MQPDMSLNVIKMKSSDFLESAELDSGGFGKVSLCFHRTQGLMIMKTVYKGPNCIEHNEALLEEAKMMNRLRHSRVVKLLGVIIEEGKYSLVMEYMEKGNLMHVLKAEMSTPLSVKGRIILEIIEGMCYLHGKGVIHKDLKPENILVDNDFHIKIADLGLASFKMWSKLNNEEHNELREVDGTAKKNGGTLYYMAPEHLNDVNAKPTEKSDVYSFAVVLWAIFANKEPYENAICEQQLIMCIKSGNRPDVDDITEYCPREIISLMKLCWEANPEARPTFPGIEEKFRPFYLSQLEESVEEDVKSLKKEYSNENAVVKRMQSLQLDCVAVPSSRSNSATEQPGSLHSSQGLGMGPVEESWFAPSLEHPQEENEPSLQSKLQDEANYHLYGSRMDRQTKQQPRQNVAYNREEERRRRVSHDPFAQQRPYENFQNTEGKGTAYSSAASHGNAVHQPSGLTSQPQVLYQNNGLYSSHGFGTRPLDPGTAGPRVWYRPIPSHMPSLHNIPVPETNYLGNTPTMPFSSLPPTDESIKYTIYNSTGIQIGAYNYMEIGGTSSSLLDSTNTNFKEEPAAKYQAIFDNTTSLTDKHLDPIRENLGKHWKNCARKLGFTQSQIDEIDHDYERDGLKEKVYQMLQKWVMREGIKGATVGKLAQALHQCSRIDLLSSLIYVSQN
Chain of human MLKL (full length) (Q8NB16 whole entry, the tested form may be a part): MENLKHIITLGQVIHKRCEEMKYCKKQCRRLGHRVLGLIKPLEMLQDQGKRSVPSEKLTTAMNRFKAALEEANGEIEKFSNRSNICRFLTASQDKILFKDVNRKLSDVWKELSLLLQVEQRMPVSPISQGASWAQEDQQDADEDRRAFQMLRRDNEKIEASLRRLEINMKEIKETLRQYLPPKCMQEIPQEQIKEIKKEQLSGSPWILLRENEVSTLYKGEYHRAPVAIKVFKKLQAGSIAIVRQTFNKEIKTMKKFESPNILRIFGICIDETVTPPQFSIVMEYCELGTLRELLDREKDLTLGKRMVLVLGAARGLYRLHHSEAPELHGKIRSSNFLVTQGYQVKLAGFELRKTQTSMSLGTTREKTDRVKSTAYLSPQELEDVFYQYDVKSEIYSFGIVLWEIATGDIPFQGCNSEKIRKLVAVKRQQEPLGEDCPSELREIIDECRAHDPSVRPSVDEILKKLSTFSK

Row | Structure (SMILES) | Kd [1] | Kd [2] | Kd [3]
1 | C[C@H](Oc1cc(-c2nn(C)c3c(-c4ccc5[nH]c(=O)n(C)c5c4)cnc(N)c23)ccc1NS(=O)(=O)C(F)F)c1ccc(F)cc1 [Compound 160, (S)-N-(4-(4-amino-1-methyl-7-(3-methyl-2-oxo-2,3-dihydro-1H-benzo[d]imidazol-5-yl)-1H-pyrazolo[4,3-c]pyridin-3-yl)-2-(1-(4-fluorophenyl)ethoxy)phenyl)-1,1-difluoromethanesulfonamide] | < 0.001 µM | > 10 µM | > 10 µM
2 | C[C@H](Oc1cc(-c2nn(C)c3c(C4=CCN(C)CC4)cnc(N)c23)ccc1NS(=O)(=O)C(F)F)c1ccc(F)cc1 [Compound 21, (S)-N-(4-(4-amino-1-methyl-7-(1-methyl-1,2,3,6-tetrahydropyridin-4-yl)-1H-pyrazolo[4,3-c]pyridin-3-yl)-2-(1-(4-fluorophenyl)ethoxy)phenyl)-1,1-difluoromethanesulfonamide] | < 0.001 µM | > 10 µM | > 10 µM
3 | C[C@H](Oc1cc(-c2nn(C)c3c(-c4ccc5c(c4)n(C)c(=O)n5C)cnc(N)c23)ccc1NS(=O)(=O)C(F)F)c1ccc(F)cc1 [Compound 161, (S)-N-(4-(4-amino-7-(1,3-dimethyl-2-oxo-2,3-dihydro-1H-benzo[d]imidazol-5-yl)-1-methyl-1H-pyrazolo[4,3-c]pyridin-3-yl)-2-(1-(4-fluorophenyl)ethoxy)phenyl)-1,1-difluoromethanesulfonamide] | < 0.001 µM | > 10 µM | > 10 µM
4 | CCS(=O)(=O)Nc1ccc(-c2coc3c(-c4cnn(C5CCOCC5)c4)cnc(N)c23)cc1OCc1ccc(F)cc1 [Compound 3, N-(4-(4-amino-7-(1-(tetrahydro-2H-pyran-4-yl)-1H-pyrazol-4-yl)furo[3,2-c]pyridin-3-yl)-2-((4-fluorobenzyl)oxy)phenyl)ethanesulfonamide] | < 0.001 µM | > 10 µM | > 10 µM
5 | CNCCn1cc(-c2cnc(N)c3c(-c4ccc(NS(=O)(=O)C(F)F)c(O[C@@H](C)c5ccc(F)cc5)c4)nn(C)c23)cn1 [Compound 82, (S)-N-(4-(4-amino-1-methyl-7-(1-(2-(methylamino)ethyl)-1H-pyrazol-4-yl)-1H-pyrazolo[4,3-c]pyridin-3-yl)-2-(1-(4-fluorophenyl)ethoxy)phenyl)-1,1-difluoromethanesulfonamide] | < 0.001 µM | > 10 µM | > 10 µM
6 | C[C@H](Oc1cc(-c2nn(C)c3c(-c4cnn(C(F)F)c4)cnc(N)c23)ccc1NS(=O)(=O)C(F)F)c1ccc(F)cc1 [Compound 123, (S)-N-(4-(4-amino-7-(1-(difluoromethyl)-1H-pyrazol-4-yl)-1-methyl-1H-pyrazolo[4,3-c]pyridin-3-yl)-2-(1-(4-fluorophenyl)ethoxy)phenyl)-1,1-difluoromethanesulfonamide] | < 0.001 µM | > 10 µM | > 10 µM
7 | C[C@H](Oc1cc(-c2coc3c(-c4cnn(CCO)c4)cnc(N)c23)ccc1NS(=O)(=O)C(F)F)c1ccc(F)cc1 [Compound 9, (S)-N-(4-(4-amino-7-(1-(2-hydroxyethyl)-1H-pyrazol-4-yl)furo[3,2-c]pyridin-3-yl)-2-(1-(4-fluoro-phenyl)eth-oxy)phenyl)-1,1-difluoromethane-sulfonamide] | < 0.001 µM | > 10 µM | > 10 µM
8 | Nc1n[nH]c2nccc(-c3ccc(NS(=O)(=O)C(F)F)c(OCc4ccc(F)cc4)c3)c12 [Compound 66, N-(4-(3-Amino-1H-pyrazolo[3,4-b]pyridin-4-yl)-2-((4-fluorophenyl)methoxy)phenyl)-1,1-difluoromethanesulfonamide] | < 0.001 µM | > 10 µM | > 10 µM
9 | C[C@H](Oc1cc(-c2nn(C)c3c(-c4cnn(C5COC5)c4)cnc(N)c23)ccc1NS(=O)(=O)C(F)F)c1ccc(F)cc1 [Compound 38, (S)-N-(4-(4-amino-1-methyl-7-(1-(oxetan-3-yl)-1H-pyrazol-4-yl)-1H-pyrazolo[4,3-c]pyridin-3-yl)-2-(1-(4-fluorophenyl)ethoxy)phenyl)-1,1-difluoromethanesulfonamide] | < 0.001 µM | > 10 µM | > 10 µM
10 | Nc1ncc(-c2cnn(CCO)c2)c2occ(-c3ccc(NS(=O)(=O)C(F)F)c(OCc4ccc(F)cc4)c3)c12 [Compound 6, N-(4-(4-amino-7-(1-(2-hydroxyethyl)-1H-pyrazol-4-yl)furo[3,2-c]pyridin-3-yl)-2-((4-fluorobenzyl)oxy)phenyl)-1,1-difluoro-methanesulfonamide] | < 0.001 µM | > 10 µM | > 10 µM
11 | COCCn1cc(-c2cnc(N)c3c(-c4ccc(NS(=O)(=O)C(F)F)c(O[C@@H](C)c5ccc(F)cc5)c4)nn(C)c23)cn1 [Compound 29, (S)-N-(4-(4-amino-7-(1-(2-methoxyethyl)-1H-pyrazol-4-yl)-1-methyl-1H-pyrazolo[4,3-c]pyridin-3-yl)-2-(1-(4-fluorophenyl)ethoxy)phenyl)-1,1-difluoromethanesulfonamide] | < 0.001 µM | > 10 µM | > 10 µM
12 | C[C@H](Oc1cc(-c2nn(C)c3ccnc(N)c23)ccc1NS(=O)(=O)C(F)F)c1ccc(F)cc1 [Compound 17, N-(4-{4-amino-1-methyl-1H-pyrazolo[4,3-c]pyridin-3-yl}-2-[(1S)-1-(4-fluorophenyl)ethoxy]phenyl)-1,1-difluoromethanesulfonamide] | < 0.001 µM | > 10 µM | > 10 µM
13 | C[C@H](Oc1cc(-c2cnn3c(-c4cnn(C)c4)cnc(N)c23)ccc1NS(=O)(=O)C(F)F)c1ccc(F)cc1 [Compound 35, (S)-N-(4-(4-amino-7-(1-methyl-1H-pyrazol-4-yl)pyrazolo[1,5-a]pyrazin-3-yl)-2-(1-(4-fluorophenyl)ethoxy)phenyl)-1,1-difluoromethane-sulfonamide] | < 0.001 µM | > 10 µM | > 10 µM

Next, values leading:

Row | Kd [1] | Kd [2] | Kd [3] | Structure (SMILES)
14 | < 0.001 µM | > 10 µM | > 10 µM | C[C@H](Oc1cc(-c2nn(C)c3c(-c4cnc(N5CCN(C)CC5)nc4)cnc(N)c23)ccc1NS(=O)(=O)C(F)F)c1ccc(F)cc1 [Compound 105, (S)-N-(4-(4-amino-1-methyl-7-(2-(4-methylpiperazin-1-yl)pyrimidin-5-yl)-1H-pyrazolo[4,3-c]pyridin-3-yl)-2-(1-(4-fluorophenyl)ethoxy)phenyl)-1,1-difluoromethanesulfonamide]
15 | < 0.001 µM | > 10 µM | > 10 µM | C[C@H](Oc1cc(-c2nn(C)c3c(C#CC4CCOCC4)cnc(N)c23)ccc1NS(=O)(=O)C(F)F)c1ccc(F)cc1 [Compound 58, (S)-N-(4-(4-amino-1-methyl-7-((tetrahydro-2H-pyran-4-yl)ethynyl)-1H-pyrazolo[4,3-c]pyridin-3-yl)-2-(1-(4-fluorophenyl)ethoxy)phenyl)-1,1-difluoromethane-sulfonamide]
16 | < 0.001 µM | > 10 µM | > 10 µM | C[C@H](Oc1cc(-c2nn(C)c3c(-c4cnn(C5(CN)CC5)c4)cnc(N)c23)ccc1NS(=O)(=O)C(F)F)c1ccc(F)cc1 [Compound 89, (S)—N-(4-(4-amino-7-(1-(1-(aminomethyl)cyclopropyl)-1H-pyrazol-4-yl)-1-methyl-1H-pyrazolo[4,3-c]pyridin-3-yl)-2-(1-(4-fluorophenyl)ethoxy)phenyl)-1,1-difluoromethanesulfonamide]
17 | < 0.001 µM | > 10 µM | > 10 µM | C[C@H](Oc1cc(-c2nn(C)c3c(-c4cnn(C5CC6(CNC6)C5)c4)cnc(N)c23)ccc1NS(=O)(=O)C(F)F)c1ccc(F)cc1 [Compound 78, (S)-N-(4-(7-(1-(2-azaspiro[3.3]heptan-6-yl)-1H-pyrazol-4-yl)-4-amino-1-methyl-1H-pyrazolo[4,3-c]pyridin-3-yl)-2-(1-(4-fluorophenyl)ethoxy)phenyl)-1,1-difluoromethane-sulfonamide]
18 | < 0.001 µM | > 10 µM | > 10 µM | C[C@H](Oc1cc(-c2nn(C)c3c(-c4cnn(C5CNC5)c4)cnc(N)c23)ccc1NS(=O)(=O)C(F)F)c1ccc(F)cc1 [Compound 94, (S)-N-(4-(4-amino-7-(1-(azetidin-3-yl)-1H-pyrazol-4-yl)-1-methyl-1H-pyrazolo[4,3-c]pyridin-3-yl)-2-(1-(4-fluorophenyl)ethoxy)phenyl)-1,1-difluoromethane-sulfonamide]
19 | < 0.001 µM | > 10 µM | > 10 µM | C[C@H](Oc1cc(-c2cnn3c(-c4cnn(C5CCOCC5)c4)cnc(N)c23)ccc1NS(=O)(=O)C(F)F)c1ccc(F)cc1 [Compound 36, (S)-N-(4-(4-amino-7-(1-(tetrahydro-2H-pyran-4-yl)-1H-pyrazol-4-yl)pyrazolo[1,5-a]pyrazin-3-yl)-2-(1-(4-fluorophenyl)ethoxy)phenyl)-1,1-difluoromethane-sulfonamide]
20 | < 0.001 µM | > 10 µM | > 10 µM | C[C@H](Oc1cc(-c2nn(C)c3c(C#CC4CCNCC4)cnc(N)c23)ccc1NS(=O)(=O)C(F)F)c1ccc(F)cc1 [Compound 79, (S)—N-(4-(4-amino-1-methyl-7-(piperidin-4-ylethynyl)-1H-pyrazolo[4,3-c]pyridin-3-yl)-2-(1-(4-fluorophenyl)ethoxy)phenyl)-1,1-difluoromethanesulfonamide]
21 | < 0.001 µM | > 10 µM | > 10 µM | C[C@H](Oc1cc(-c2nn(C)c3c(-c4cnn(C5CCN(C)C5)c4)cnc(N)c23)ccc1NS(=O)(=O)C(F)F)c1ccc(F)cc1 (stereo partly drawn) [Compound 93, N-(4-(4-amino-1-methyl-7-(1-(1-methylpyrrolidin-3-yl)-1H-pyrazol-4-yl)-1H-pyrazolo[4,3-c]pyridin-3-yl)-2-((S)-1-(4-fluorophenyl)ethoxy)phenyl)-1,1-difluoromethanesulfonamide]
